Read-outs that look alike come from different tables or passages of the source.
Key:
[1] = tested on: L5/L6 spinal nerve ligation models; assay type: in vivo, male SD rats
Description: The evaluation of an analgesic effect on neuropathic pain was performed according to the method of Kim et al. using L5/L6 spinal nerve ligation models. That is, the left L5 and L6 sciatic nerves of male SD rats were tightly ligated with a silk thread under pentobarbital anesthesia, and thereafter, the evaluation was performed. As the assessment of pain behavior, a von Frey Test on the plantar surface of the animals was employed (Pain, vol. 50, pp. 355-363, 1992). That is, the plantar surface of the operated limb of the nerve ligation rat was stimulated by using von Frey Filament until a withdrawal response was observed, and the lowest amount of force (g) required to elicit withdrawal response was defined as a pain threshold. […] Each of a vehicle and diluted solutions obtained by diluting (±)-2-[(inden-7-yloxy)methyl]morpholine hydrochloride (indeloxazine hydrochloride), (+)-2-[(inden-7-yloxy)methyl]morpholine hydrochloride ((+)-indeloxazine hydrochloride), (−)-2-[(inden-7-yloxy)methyl]morpholine hydrochloride ((−)-indeloxazine hydrochloride), or duloxetine with a vehicle so as to give a dose of 30 mg/kg (calculated as a salt free form) was orally administered to rats in each group. The oral absorption of venlafaxine is poor, therefore, venlafaxine was intraperitoneally administered. As the vehicle, distilled water was used. A pain threshold was measured at 3 hours after administration in the case of duloxetine, and at 1 hour after administration in the case of the other compounds. An analgesic effect of each compound was examined based on recovery of the pain threshold in the each compound administration group compared with that in the vehicle administration group, as S. K. Joshi et al. described (Neuroscience, vol. 143, pp. 587-596, 2006).
The numerical values in the table indicate a mean value±standard error of the mean (SEM) of recovery ratios of thresholds of compounds when the pain threshold of the normal side paw is regarded as 100% and the pain threshold of the operated side paw is regarded as 0%.

CYP = CYP inhibitory activity; assay type: in vitro ADME; details: no method or isoform given
[2] = oral dose of 30 mg/kg (salt free form), 1 hour after administration, Student's t-test
[3] = 30 mg/kg (calculated as a salt free form), p.o., measured 1 hour after administration, mean ± SEM, hydrochloride

Structure (SMILES) | recovery in the pain threshold compared with the vehicle group (in words) [1, 2] | % Effect (recovery ratio of pain threshold; normal side paw = 100%, operated side paw = 0%) [1, 3] | also measured
COc1ccc(C(CN(C)C)C2(O)CCCCC2)cc1 (racemic) [Venlafaxine, (±)-1-[2-(dimethylamino)-1-(4-methoxyphenyl)ethyl]cyclohexanol, reference compound] | – | – | recovery in the pain threshold compared with the vehicle group (in words) ([1]; 30 mg/kg (salt free form), intraperitoneal, 1 hour after administration, Student's t-test): a significant recovery in the threshold was not observed
C1=Cc2cccc(OCC3CNCCO3)c2C1 (single isomer, unassigned; (+)) [(+)-2-[(inden-7-yloxy)methyl]morpholine] | – | – | CYP inhibitory activity (in words) (CYP): extremely weak CYP inhibitory activity
CNCC[C@H](Oc1cccc2ccccc12)c1cccs1 [Duloxetine, (S)—N-methyl-γ-(1-naphthalenyloxy)-2-thiophenepropanamine, reference compound] | – | – | % Effect (recovery ratio of pain threshold; normal side paw = 100%, operated side paw = 0%) ([1]; rat, in vivo): 49.3 ± 25.3%; recovery in the pain threshold compared with the vehicle group (in words) ([1]; rat, in vivo): a significant recovery in the threshold was not observed
C1=Cc2cccc(OCC3CNCCO3)c2C1.Cl (racemic) [(±)-Indeloxazine hydrochloride, (±)-2-[(inden-7-yloxy)methyl]morpholine hydrochloride] | significant recovery in the pain threshold | – | % Effect (recovery ratio of pain threshold; normal side paw = 100%, operated side paw = 0%) ([1]; 30 mg/kg (calculated as a salt free form), p.o., measured 1 hour after administration, mean ± SEM): 94.3 ± 24.6 %
C1=Cc2cccc(OCC3CNCCO3)c2C1.Cl (single isomer, unassigned; (+)) [(+)-Indeloxazine hydrochloride, (+)-2-[(inden-7-yloxy)methyl]morpholine hydrochloride] | significant recovery in the pain threshold | 94.5 ± 17.0 % | –
C1=Cc2cccc(OCC3CNCCO3)c2C1.Cl (single isomer, unassigned; (-)) [(−)-Indeloxazine hydrochloride, (−)-2-[(inden-7-yloxy)methyl]morpholine hydrochloride] | significant recovery in the pain threshold | 115.7 ± 22.0 % | –

— US20100087439A1, “NOVEL […]/OR THERAPEUTIC AGENT FOR NEUROPATHIC PAIN” (ASTELLAS PHARMA INC., priority 2007, published 2010)
